This is an account of results in patent publication US10092506B2, “Encapsulation of lipophilic or amphiphilic therapeutic agents in nano-emulsion” (COMMISSARIAT A L'ENERGIE ATOMIQUE ET AUX ENERGIES …, priority 2008, dated 2018).

Data set [1] in a line: fluorescence quantum yield with reference to Nile Blue perchlorate in ethanol. To be noted: in toluene. The format is physicochemical. The protocol: The fluorescence quantum yield of various photosensitizers formulated in a nano-emulsion and in solvent was measured with reference to Nile Blue perchlorate in ethanol, λexc 605 nm (Fref=0.27).
A short description of data set [2]: physico-chemical behaviour of taxol under nano-emulsion preparation and analysis conditions. The format is physicochemical. To be noted: after ultrasound, heat treatment (4 h at 60° C.) and analytical conditions (acetonitrile/water mixture).

On to `C1=Cc2nc1c(-c1ccccc1)c1ccc([nH]1)c(-c1ccccc1)c1nc(c(-c3ccccc3)c3ccc([nH]3)c2-c2ccccc2)CC1` [mTPC, meso-tetraphenylchlorine], for which the “Fluorescence quantum yield F” value in data set [1] was 0.38. `CC(=O)O[C@H]1C(=O)[C@@]2(C)[C@H]([C@H](OC(=O)c3ccccc3)[C@]3(O)C[C@H](OC(=O)[C@H](O)[C@@H](NC(=O)c4ccccc4)c4ccccc4)C(C)=C1C3(C)C)[C@]1(OC(C)=O)CO[C@@H]1C[C@@H]2O` [paclitaxel]: the degradation of taxol result in data set [2] was “absence of degradation”.
